In brackets after ≈: the same amount, converted by molar mass. Where two headings read alike, the source gives them in different places. Marks after values point to notes of the source that are not given here. Where only a bound is given, the exact number is not on record here.

The text below walks through data of paper PMC7400135, “3-(5-Nitrofuran-2-yl)prop-2-en-1-one Derivatives, with Potent Antituberculosis Activity, Inhibit A Novel Therapeutic Target, Arylamine N-acetyltransferase, in Mycobacteria” (Antibiotics, 2020).

One data set deals with E. coli (NCTC 10538). Nature of the data set: HT-SPOTi growth inhibition (MIC), E. coli. Particulars: 37 °C 16 h; for MIC: Escherichia coli, NCTC10538, LB agar; for MIC Escherichia coli: LB agar. The data set is classed as cell-based, Escherichia coli.
The subject of the next data set is S. aureus (ATCC 25923). Description: HT-SPOTi growth inhibition (MIC), S. aureus. Type of data set: cell-based, Staphylococcus aureus. Conditions: 37 °C 16 h; for MIC: Staphylococcus aureus, ATCC25923, LB agar; for MIC Staphylococcus aureus: LB agar.
Data set [1] has as its system M. bovis BCG (ATCC 35734). Nature of the data set: microbe, parasite or virus in culture. Particulars: Mycobacterium tuberculosis variant bovis BCG, 336 h, read-out: MIC Mycobacterium bovis BCG. Type of data set: cell-based.
The subject of data set [2] is M. aurum (NCTC 10437). Nature of the data set: HT-SPOTi growth inhibition (MIC), M. aurum. Type of data set: cell-based. Conditions: Mycolicibacterium aurum, NCTC10437, 120 h; HT-SPOTi agar assay, 35 °C 5 days; read-out: MIC Mycobacterium aurum.
Data set [3] has as its system M. tuberculosis H37Rv (ATCC 25618). Description: HT-SPOTi growth inhibition (MIC), M. tuberculosis H37Rv. The data set is classed as cell-based. Particulars: Mycobacterium tuberculosis; HT-SPOTi agar assay; read-out: MIC Mtb H37Rv.
Data set [4] deals with recombinant Mycobacterium marinum N-acetyltransferase (MMNAT) (Mycobacterium marinum, UniProt B2HIZ6). Description: Inhibition of recombinant MMNAT (DTNB assay). Type of data set: biochemical.
Data set [5] has as its system murine macrophage RAW 264.7 cell line. Particulars: resazurin assay, 48 h incubation. On the technique in general: Resazurin is reduced to fluorescent resorufin, in cell work by metabolically active cells.
Data set [6] deals with M. bovis BCG infected in THP-1 macrophages. Description: microbe, parasite or virus in culture. The data set is classed as cell-based, Mycobacterium bovis BCG. Conditions: for ex vivo MIC as multiple of MIC: M. bovis BCG in THP-1 macrophages; for MIC: Mycobacterium tuberculosis variant bovis BCG, BCG, 48 h, read-out: ex vivo MIC.
In data set [7] the test system is human monocyte THP-1 cell line. Particulars: resazurin assay, 48 h incubation.
In data set [8] the test system is M. aurum (NCTC 10437). Details: method as in Gupta and Bhakta, 2012. Conditions: ref Gupta and Bhakta, 2012; cited from earlier work.
Data set [9] relates to M. bovis BCG (ATCC 35734). Conditions: ref Gupta and Bhakta, 2012; cited from earlier work.
The mark [10] stands for this setting: hydralazine 450 µM, acetyl CoA 400 µM, extrapolated from linear regression, read-out: IC50 MMNAT.
Setting [11] is: value in brackets, same IC50 in mg/L, read-out: IC50 MMNAT.

Sequence of recombinant Mycobacterium marinum N-acetyltransferase (MMNAT) (B2HIZ6 entry or part of it): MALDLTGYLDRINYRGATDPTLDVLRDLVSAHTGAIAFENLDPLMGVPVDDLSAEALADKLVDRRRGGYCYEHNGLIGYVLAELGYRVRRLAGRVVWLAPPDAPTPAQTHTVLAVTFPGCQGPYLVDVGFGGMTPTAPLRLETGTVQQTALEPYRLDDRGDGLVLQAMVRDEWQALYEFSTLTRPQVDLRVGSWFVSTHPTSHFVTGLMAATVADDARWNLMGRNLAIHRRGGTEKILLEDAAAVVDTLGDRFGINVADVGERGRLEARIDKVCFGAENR

Take `CC1(C)S[C@@H]2[C@H](NC(=O)[C@H](N)c3ccccc3)C(=O)N2[C@H]1C(=O)O` [Ampicillin, reference compound]: the results for the MIC (against E. coli (NCTC 10538); against S. aureus (ATCC 25923); in data set [1]) were 2 µg/mL (≈ 5.72 µM), 0.125 µg/mL (≈ 0.358 µM) and > 500 µg/mL, respectively.
On to `O=C(/C=C/c1ccc([N+](=O)[O-])o1)c1ccc(N2CCOCC2)cc1` [Compound 1], for which the MIC in the data set on M. aurum (NCTC 10437) [2] is > 500 µg/mL; in data set [3], 0.244 µg/mL (≈ 0.743 µM); with E. coli (NCTC 10538), > 500 µg/mL; in data set [6], 0.24 µg/mL (≈ 0.731 µM); with S. aureus (ATCC 25923) it was > 500 µg/mL; in [1], 0.06 µg/mL (≈ 0.183 µM). Moreover, the IC50 in [4] (setting [10]) and in data set [4] (setting [11]) was 207 nM in each case. For the same compound, the “GIC RAW 264.7 Cell Line” value in data set [5] is 125 mg/L. For the same compound, in the data set on E. coli (NCTC 10538), the “MIC Escherichia coli” value was “inactive”. Also, the “ex vivo MIC as multiple of MIC” value in data set [6] was 4 × MIC. In data set [7], the “GIC THP-1 Cell Line” value was found to be 62.5 mg/L. Moreover, the “MIC Staphylococcus aureus” value against S. aureus (ATCC 25923) was “inactive”.
Turning to `O=C(/C=C/c1ccc([N+](=O)[O-])o1)c1ccc(N2CCCCC2)cc1` [Compound 2], the MIC in the data set on M. aurum (NCTC 10437) [2] was > 500 µg/mL; in data set [3], 0.031 µg/mL (≈ 0.095 µM); in the data set with E. coli (NCTC 10538), > 500 µg/mL; in the data set with S. aureus (ATCC 25923) it was > 500 µg/mL; in data set [1], 0.0075 µg/mL (≈ 0.023 µM). For the same compound, the IC50 (commonly the concentration needed to halve the response being measured) in data set [4] (setting [10]) is 269 nM; in [4] (setting [11]), 270 nM. Also, in data set [5], the “GIC RAW 264.7 Cell Line” value is 125 mg/L. In addition, in the data set with E. coli (NCTC 10538), the “MIC Escherichia coli” value is “inactive”. Besides, in data set [7], the “GIC THP-1 Cell Line” value is reported as 62.5 mg/L. Besides, in the data set on S. aureus (ATCC 25923), the “MIC Staphylococcus aureus” value is “inactive”.
As to `CCN(CC)c1ccc(C(=O)/C=C/c2ccc([N+](=O)[O-])o2)cc1` [Compound 3], the MIC with M. aurum (NCTC 10437) [2] is > 500 µg/mL; in [3], 0.488 µg/mL (≈ 1.55 µM); in the data set on E. coli (NCTC 10538), 250 µg/mL (≈ 795 µM); in the data set on S. aureus (ATCC 25923) it was 62.5 µg/mL (≈ 199 µM); in data set [1] it was 0.03 µg/mL (≈ 0.0954 µM). Besides, the IC50 in [4] (setting [10]) and in data set [4] (setting [11]) was 134 nM throughout. Also, the “GIC RAW 264.7 Cell Line” value in data set [5] was 31.25 mg/L. Besides, the “GIC THP-1 Cell Line” value in data set [7] is recorded as 15.6 mg/L.
On to `CC[C@@H](CO)NCCN[C@@H](CC)CO` [Ethambutol], for which the MIC in data set [3] was 2 µg/mL (≈ 9.79 µM). Moreover, in data set [4] (setting [10]), the IC50 is > 1000 nM. Also, the “MIC Mycobacterium aurum” value in the data set with M. aurum (NCTC 10437) [8] was 0.10 ^# mg/L. The “MIC Mycobacterium bovis BCG” value in data set [9] is recorded as 2.00 ^# mg/L.
As for `NNC(=O)c1ccncc1` [Isoniazid, reference compound], the MIC was found to be 1.25 µg/mL (≈ 9.11 µM) with M. aurum (NCTC 10437) [2], 0.8 µg/mL (≈ 5.83 µM) in data set [3], 1.25 µg/mL (≈ 9.11 µM) in [6] and 0.625 µg/mL (≈ 4.56 µM) in data set [1]. Further, the IC50 in [4] (setting [10]) is > 1000 nM. Moreover, the “GIC RAW 264.7 Cell Line” value in data set [5] is listed as “NA^a (not active until 500 mg/L concentration)”. The “ex vivo MIC as multiple of MIC” value in data set [6] turned out to be 2 × MIC. Moreover, in data set [7], the “GIC THP-1 Cell Line” value is “NA^a (not active until 500 mg/L concentration)”.
As to `CN(Cc1cnc2nc(N)nc(N)c2n1)c1ccc(C(=O)N[C@@H](CCC(=O)O)C(=O)O)cc1` [Methotrexate, reference compound], the MIC in data set [3] was > 500 µg/mL; in data set [1] it was 500 µg/mL (≈ 1100 µM). In addition, the “GIC RAW 264.7 Cell Line” value in [5] was 0.122 mg/L. The “GIC THP-1 Cell Line” value in data set [7] is recorded as 0.975 mg/L.
In the case of `O=[N+]([O-])c1cn2c(n1)OC[C@@H](OCc1ccc(OC(F)(F)F)cc1)C2` [Pretomanid], the MIC in data set [3] is 0.061 µg/mL (≈ 0.17 µM). Also, in data set [4] (setting [10]), the IC50 is > 1000 nM.
On to `CO[C@H]1/C=C/O[C@@]2(C)Oc3c(C)c(O)c4c(O)c(c(/C=N/N5CCN(C)CC5)c(O)c4c3C2=O)NC(=O)/C(C)=C\C=C\[C@H](C)[C@H](O)[C@@H](C)[C@@H](O)[C@@H](C)[C@H](OC(C)=O)[C@@H]1C` [Rifampicin], for which the MIC in [3] is 0.125 µg/mL (≈ 0.152 µM). In addition, in [4], the IC50 was > 1000 nM. Besides, in the data set on M. aurum (NCTC 10437) [8], the “MIC Mycobacterium aurum” value is listed as 0.40 ^# mg/L. Further, the “MIC Mycobacterium bovis BCG” value in data set [9] is given as 0.50 ^# mg/L.
